Assay results reported in patent US20240336602A1 (Katholieke Universiteit Leuven, priority 2020, published 2024).
pIC50: −log10 of the molar value.

The compounds below were run against T1, mouse TRPM3a2 (mTRPM3) ion channel (Mus musculus, UniProt J9SQF3) (assay: TRPM3 ion channel driven Ca2+ uptake, Fluo-4 AM assay (PS-stimulated, overexpressing flip-in HEK293 cells)). Conditions: PS (50 μM) stimulated Ca2+ influx, HEK293, cpds 300-399.
T1 construct: expressed in transfected cells; host or cells: flip-in HEK293
T1 sequence (J9SQF3 1-1709 isoform J9SQF3-12): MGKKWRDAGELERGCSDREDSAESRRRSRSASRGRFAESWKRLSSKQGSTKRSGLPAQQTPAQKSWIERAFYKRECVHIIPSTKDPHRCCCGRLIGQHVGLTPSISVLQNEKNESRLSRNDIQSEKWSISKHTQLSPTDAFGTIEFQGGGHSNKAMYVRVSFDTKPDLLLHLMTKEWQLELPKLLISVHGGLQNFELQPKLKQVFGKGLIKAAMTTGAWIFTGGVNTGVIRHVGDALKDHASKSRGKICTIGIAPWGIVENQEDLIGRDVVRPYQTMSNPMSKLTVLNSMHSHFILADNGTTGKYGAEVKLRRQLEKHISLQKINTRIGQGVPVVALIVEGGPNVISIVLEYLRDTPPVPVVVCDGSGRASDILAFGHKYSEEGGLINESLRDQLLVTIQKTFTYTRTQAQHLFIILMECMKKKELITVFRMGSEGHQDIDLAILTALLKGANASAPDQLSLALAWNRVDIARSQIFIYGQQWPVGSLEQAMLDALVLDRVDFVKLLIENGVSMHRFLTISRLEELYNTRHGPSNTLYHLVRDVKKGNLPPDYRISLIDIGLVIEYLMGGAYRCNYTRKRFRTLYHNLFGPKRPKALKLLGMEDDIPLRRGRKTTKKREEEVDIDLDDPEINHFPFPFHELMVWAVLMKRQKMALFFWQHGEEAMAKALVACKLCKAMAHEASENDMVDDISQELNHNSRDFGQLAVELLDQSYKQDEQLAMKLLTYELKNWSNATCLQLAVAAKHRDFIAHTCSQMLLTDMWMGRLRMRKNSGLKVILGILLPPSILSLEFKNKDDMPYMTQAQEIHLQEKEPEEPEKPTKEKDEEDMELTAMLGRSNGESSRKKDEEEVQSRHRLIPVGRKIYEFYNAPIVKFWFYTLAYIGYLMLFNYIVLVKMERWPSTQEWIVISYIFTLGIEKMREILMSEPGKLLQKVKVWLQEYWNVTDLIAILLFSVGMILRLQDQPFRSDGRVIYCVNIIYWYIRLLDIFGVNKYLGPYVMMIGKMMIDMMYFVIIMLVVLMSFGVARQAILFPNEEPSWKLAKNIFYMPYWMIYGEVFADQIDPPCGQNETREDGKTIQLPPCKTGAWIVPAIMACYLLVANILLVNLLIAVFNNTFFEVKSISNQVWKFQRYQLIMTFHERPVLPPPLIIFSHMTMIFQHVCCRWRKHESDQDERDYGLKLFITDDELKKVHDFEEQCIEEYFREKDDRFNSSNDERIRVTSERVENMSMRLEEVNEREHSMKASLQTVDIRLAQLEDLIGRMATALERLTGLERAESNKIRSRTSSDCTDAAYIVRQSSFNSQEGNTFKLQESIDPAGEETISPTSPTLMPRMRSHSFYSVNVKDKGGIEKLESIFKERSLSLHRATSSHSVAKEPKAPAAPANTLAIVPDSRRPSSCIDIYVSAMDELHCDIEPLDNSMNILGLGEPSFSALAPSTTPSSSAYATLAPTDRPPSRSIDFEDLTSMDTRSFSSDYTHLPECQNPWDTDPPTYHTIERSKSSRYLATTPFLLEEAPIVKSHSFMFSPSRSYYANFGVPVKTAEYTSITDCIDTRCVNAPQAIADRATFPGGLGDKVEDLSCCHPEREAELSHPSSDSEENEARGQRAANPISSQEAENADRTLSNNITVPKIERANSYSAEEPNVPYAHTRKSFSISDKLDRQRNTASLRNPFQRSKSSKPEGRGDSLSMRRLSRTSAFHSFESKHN
Type: cell-based
Outline: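 Flip-in HEK293 cells overexpressing mTRPM3α2, loaded with Fluo-4 AM, were added to wells with compound plus 50 μM pregnenolone sulfate in Ca2+-containing Krebs buffer and read immediately (ex 485/em 535 nm). Percent inhibition was scaled between PS-plus-vehicle and positive-control-inhibitor signals.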
For `Cc1ncsc1COc1cc(F)c2oc(C)c(C(=O)NC3(CO)CC3)c2c1` [cpd 366, 7-fluoro-N-(1-(hydroxymethyl)cyclopropyl)-2-methyl-5-((4-methylthiazol-5-yl)methoxy)benzofuran-3-carboxamide], the pIC50 was 4.70 to 6.00. For `Cc1oc2ccc(OCc3ncccc3C(F)F)cc2c1C(=O)NC1(CO)CCOCC1` [cpd 351, 5-((3-(difluoromethyl)pyridin-2-yl)methoxy)-N-(4-(hydroxymethyl)tetmhydro-2H-pyran-4-yl)-2-methylbenzofuran-3-carboxamide], the pIC50 was 4.70 to 6.00. For `Cc1oc2ccc(OCc3ccnn3CC(F)F)cc2c1C(=O)N[C@H](C(N)=O)[C@@H](C)O` [cpd 381, N-((2S,3R)-1-amino-3-hydroxy-1-oxobutan-2-yl)-5-((1-(2,2-difluoroethyl)-1H-pyrazol-5-yl)methoxy)-2-methylbenzofuran-3-carboxamide], the pIC50 was no less than 6.00.

Same assay, conditions: PS (50 μM) stimulated, cpd 001-199
`Cc1oc2ccc(OCc3ncccc3C(F)(F)F)cc2c1C(=O)NC1CCNCC1(F)F` (centres unmarked) [cpd 076, N-(3,3-difluoropiperidin-4-yl)-2-methyl-5-((3-(trifluoromethyl)pyridin-2-yl)methoxy)benzofuran-3-carboxamide] gave a pIC50 of 4.70 to 6.00. Work on `Cc1ncsc1COc1ccc2oc(C)c(C(=O)NC3CCN(C(=O)OC(C)(C)C)CC3(F)F)c2c1` (centres unmarked) [cpd 090, tert-butyl 3,3-difluoro-4-(2-methyl-5-((4-methylthiazol-5-yl)methoxy)benzofuran-3-carbox-amido)piperidine-1-carboxylate] yielded a pIC50 of 4.70 to 6.00. With `Cc1oc2cc(Cl)c(OCc3cccnc3C(F)(F)F)cc2c1C(=O)NC1CCNCC1(F)F` (single isomer, unassigned) [165 - En 1] the pIC50 was no less than 6.00. Work on `Cc1oc2ccc(OCc3cccnc3C(F)(F)F)cc2c1C(=O)NC1(CCO)CCOC1` (single isomer, unassigned) [126 - En 1] yielded a pIC50 of no less than 6.00. `Cc1oc2ccc(OCc3ccc4nccn4c3)cc2c1C(=O)NC1CCN(C(=O)OC(C)(C)C)CC1(F)F` (centres unmarked) [cpd 094, tert-butyl 3,3-difluoro-4-(5-(imidazo[1,2-a]pyridin-6-ylmethoxy)-2-methylbenzofuran-3-carbox-amido)piperidine-1-carboxylate] was tested, and the pIC50 was 4.70 to 6.00.

Same assay, conditions: PS (50 μM) stimulated, cpds. 400-499
For `COCC(C)(NC(=O)c1c(C)oc2ccc(OCc3scnc3C)cc12)C(N)=O` (single isomer, unassigned) [468 - En 1], the pIC50 was no less than 6.00. For `Cc1ncsc1COc1ccc2oc(C)c(C(=O)NC(C)(CO)C(N)=O)c2c1` (single isomer, unassigned) [463 - En 2], the pIC50 was no less than 6.00. In the case of `Cc1ncsc1COc1ccc2oc(C)c(C(=O)NC3(C)CCN(CCO)C3=O)c2c1` (single isomer, unassigned) [410 - En 2], the pIC50 was 4.70 to 6.00. `Cc1ncsc1COc1ccc2oc(C)c(C(=O)NC(CO)CN3CCOCC3)c2c1` (single isomer, unassigned) [488 - En 2] gave a pIC50 of 4.70 to 6.00. Compound `Cc1ncsc1COc1ccc2oc(C)c(C(=O)NC(CO)CN3CCOCC3)c2c1` (single isomer, unassigned) [488 - En 1] has a pIC50 of no less than 6.00. With `Cc1oc2ccc(OCc3ccnn3C)cc2c1C(=O)NC1CCN(CCO)C1=O` (single isomer, unassigned) [404 - En 1] the pIC50 was 4.70 to 6.00.

Same assay, conditions: PS (50 μM) stimulated, cpds. 500-599
`Cc1ncsc1COc1ccc2oc(C)c(C(=O)NC3(C(N)=O)CCOC3)c2c1` (single isomer, unassigned) [593 - En 1] gave a pIC50 of no less than 6.00. In the case of `Cc1ccc(COc2ccc3oc(C)c(C(=O)NC4(CO)CCNC4=O)c3c2)cn1` (single isomer, unassigned) [519 - En 1], the pIC50 was no less than 6.00. `Cc1ncsc1COc1ccc2oc(C)c(C(=O)NCC(C(N)=O)N(C)C)c2c1` (centres unmarked) [575 - En 1] gave a pIC50 of no less than 6.00. Compound `Cc1ncsc1COc1ccc2oc(C)c(C(=O)NC(C#N)C(N)=O)c2c1` (centres unmarked) [cpd 502, N-(2-amino-1-cyano-2-oxoethyl)-2-methyl-5-((4-methylthiazol-5-yl)methoxy)benzofuran-3-carboxamide] has a pIC50 of no less than 6.00.

Same assay, conditions: PS (50 μM) stimulated, cpds. 600-666
Compound `CNC(=O)C(CO)NC(=O)c1c(C)oc2ccc(OCc3scnc3C)cc12` (single isomer, unassigned) [600 - En 1] has a pIC50 of no less than 6.00. `Cc1oc2ccc(OCc3ccnn3C)cc2c1C(=O)NC1COCC1O` (single isomer, unassigned) [655 - En 1] was tested, and the pIC50 was no less than 6.00.

Same assay, conditions: PS (50 μM) stimulated, cpds. 667-751
Compound `Cc1oc2ccc(OCc3ccnn3C)cc2c1C(=O)NC1(CO)CCCNC1=O` (single isomer, unassigned) [732 - En 1] has a pIC50 of no less than 6.00. With `Cc1ncsc1COc1ccc2oc(C)c(C(=O)NC3(CO)CCNC3)c2c1` (single isomer, unassigned) [728 - En 2] the pIC50 was no less than 6.00. For `Cc1oc2ccc(OCc3ncccc3C3CC3)cc2c1C(=O)NC1(CO)CCOCC1` [cpd 705, 5-((3-cyclopropylpyridin-2-yl)methoxy)-N-(4-(hydroxymethyl)tetrahydro-2H-pyran-4-yl)-2-methylbenzofuran-3-carboxamide], the pIC50 was 4.70 to 6.00.
